One block for each compound: values may come before it.
Assays:
[1] = Particle size distribution by laser diffraction (D.4); type: physicochemical; conditions: after micronization, monohydrate II as starting material, 50 mm spiral jet mill; dry measurement 4 bar
Procedure: All measurements cited in the above tables were obtained by laser diffraction with dry dispersion using compressed air. Measuring in aqueous suspension with surfactants may lead to smaller particle sizes (×90 up to 1 μm smaller).
The particle size analysis data are usually reported as cumulative undersized distribution by volume. The symbol x is used to denote the particle size, which is defined as diameter of a volume equivalent sphere. Most common characteristic values are calculated from the particle size distribution by interpolation. Frequently used are the particle sizes at the undersize values of 10%, 50% and 90% of the volume distribution, denoted as ×10, ×50 and ×90. ×50 is also known as median particle size. The symbol dis widely used to designate the particle size, thus the symbol x may be replaced by the symbol d.

[2] = tested on: anesthetized thromboxane A2 challenged PAH-minipig; experiment: Haemodynamics in the anesthetized thromboxane challenged minipig (PAH minipig), inhaled nebulized solution: lung selectivity and duration of action; type: in vivo, Göttingen Minipigs; conditions: inhaled; for PAP % changes vs prevalue: mean
Procedure: Healthy Göttingen Minipigs® Ellegaard (Ellegaard, Denmark) of both sexes and having a weight of 2-6 kg were used. The animals were sedated by i.m. administration of about 25 mg/kg ketamine and about 10 mg/kg azaperone. Anaesthesia was initiated by i.v. administration of about 2 mg/kg ketamine and about 0.3 mg/kg midazolam. Maintenance of anaesthesia was by i.v. administration of about 7.5-30 mg/kg/h ketamine and about 1-4 mg/kg/h midazolam (rate of infusion 1-4 ml/kg/h) and about 150 μg/kg/h pancuronium bromide (for example Pancuronium-Actavis). After intubation, the animals were ventilated by the ventilator at a constant respiratory volume (10-12 ml/kg, 35 breaths/min; Avea®, Viasys Healthcare, USA, or Engström Carestation, GE Healthcare, Freiburg, Germany) such that an end-tidal CO2 concentration of about 5% was achieved. Ventilation was performed with room air, enriched with about 40% oxygen (normoxia). For the measurement of the haemodynamic parameters such as pulmonary arterial pressure (PAP), blood pressure (BP) and heart rate (HR), catheters were inserted into the carotid artery to measure the blood pressure, and a Swan-Ganz® catheter was introduced in a flow-directed manner via the jugular vein into the pulmonary artery. The haemodynamic signals were recorded and evaluated by means of pressure transducers (Combitransducer, B. Braun, Melsungen, Germany)/amplifiers and Ponemah® as data acquisition software.
After the instruments have been placed into the animals, continuous infusion of a thromboxane A2 analog was initiated to increase the pulmonary arterial pressure. About 0.3-0.75 μg/kg/min of 9,11-didesoxy-9α,11α-epoxymethanoprostaglandine F2α (U-44069; Sigma, cat. no. D0400, or Cayman Chemical Company, cat. no. 16440), dissolved in physiological saline, were infused to achieve an increase of the mean pulmonary arterial pressure to values of over 25 mmHg. 30 minutes after the start of the infusion, a plateau was reached, and the experiment was started.
The test substances were administered as i.v. infusion or by inhalation. For the preparation of the solution for inhalation, the following procedure was adopted: For an animal having a weight of 4 kg, to prepare the stock solution (300 μg/kg), 1.2 mg of the test compound were weighed out and dissolved in a total volume of 3 ml (1% DMSO, 99% 0.2% strength citric acid solution, 1 n aqueous sodium hydroxide solution to adjust the pH to 8). The solution was then diluted to the concentration employed using 0.2% strength citric acid which had been adjusted to pH 8 beforehand with aqueous sodium hydroxide solution. In each test, 3 ml of the solution of test compound per 4 kg animal were nebulized in the inhalation arm of the respiratory circuit using the Aeroneb® Pro nebulizer system. The mean nebulization time was about 7 min from the start of the nebulization.
With respect to a prediction of the duration of action for human studies comparative example 11 was compared in the PAH minipig model after inhaled application to Ventavis® (=Iloprost, 10 μg/kg nominal dose), which we used as a clinical reference. […] Therefore, the duration of action is more than 6 times longer compared to Ventavis in this preclinical animal model.

[3] = tested on: plasma proteins; experiment: Protein binding via ultrafiltration assay; type: in vitro ADME
Description: For this assay, filter membranes of 30 kDa pore size were used to separate plasma and protein free ultrafiltrate. The driving force for filtration was applied by centrifugation. Prior to protein binding studies, the adsorption (recovery) of the test compound to the ultra-filtration device and the ability of the test compound to pass the filter membrane was checked by filtration of the test compound dissolved in buffer at four concentrations. Sufficient stability of the test compound and an almost complete recovery (≥90% of the actual amount of compound used for the experiment) was a prerequisite for the use of the ultrafiltration method. The amount of organic solvent added to the plasma may not exceed 2% of the total incubation volume. Blood samples were collected in heparinized tubes either pooled (all species except human and monkey) or individually (human and monkey) and were used within 24 h for incubation experiments in blood. Plasma was prepared by centrifugation of the heparinized blood samples. Plasma was stored at −15° C. until use. Plasma stability, Compound recovery, unspecific binding to the membrane and the test device as well as partitioning between blood cells and plasma were controlled. The substance-associated radioactivity was determined by liquid scintillation counting. With this analytical method, it is not possible to distinguish between unchanged substance and radioactive metabolites. For details of the radioanalytical methods and the work up of the samples see Goeller et al. (3). A description of the ultrafiltration method in general was published by Zhang et al. In 2012 (4).

[4] = tested on: plasma proteins; experiment: Protein binding via Transil assay, human plasma; type: in vitro ADME; conditions: all tested species where comparative results are given
Description: The distribution of a test substance between Transil® (phosphatidylcholine lipid bilayers immobilized on silica beads) and plasma is a characteristic feature of any pharmaceutical compound and is dependent on its extent of binding to plasma proteins. By comparing the distribution between Transil® and buffer with the distribution between Transil® and plasma of any species of interest, the unbound fraction in the plasma of the respective animal species can be calculated in vitro. The respective plasma and buffer concentrations were determined via a radioactivity analysis. A detailed description of the method and its validation was published by Schuhmacher et al. (2).

[5] = tested on: patients with pulmonary hypertension; conditions: clinical studies; cited from earlier work

PSD X10 [1]: X10: 0.2 μm, | PSD X50 [1]: X50: 1.7 μm, | PSD X90 [1]: X90: 4.2 μm
Compound: CCOC(=O)c1ccc2c(n1)CCCC2NCCc1ccccc1OCc1ccc(-c2ccc(C(F)(F)F)cc2)cc1Cl (single isomer, unassigned) [Example 8a, Ethyl 5-{[2-(2-{[3-chloro-4′-(trifluoromethyl)biphenyl-4-yl]methoxy}phenyl)ethyl]amino}-5,6,7,8-tetrahydroquinoline-2-carboxylate]

Compound: O=C(O)c1ccc(CCN(CCc2cc(F)ccc2OCc2ccc(-c3nc4cc(Cl)ccc4o3)cc2)C2CCCc3nc(C(=O)O)ccc32)cc1 (single isomer, unassigned) [compound 4, 5-{[2-(4-Carboxyphenyl)ethyl][2-(2-{[4-(5-chloro-1,3-benzoxazol-2-yl)benzyl]oxy}-5-fluorophenyl)-ethyl]amino}-5,6,7,8-tetrahydroquinoline-2-carboxylic Acid, reference compound]
duration of action ([2]; minipig model): sufficient duration of action

Fraction unbound (%) ([3]; Dog Beagle plasma): 17.1% | Fraction unbound (%) ([3]; Human (male) plasma): 4.97% | Fraction unbound (%) ([3]; Rat Wistar plasma): 15.7%
Compound: COC(=O)N(C)c1c(N)nc(-c2nn(Cc3ccccc3F)c3ncccc23)nc1N [Comparative example 2, Methyl-4,6-diamino-2-[1-(2-fluorobenzyl)-1H-pyrazolo[3,4-b]pyridine-3-yl]-5-pyrimidinyl(methyl)carbamate]

Compound: O=C(O)c1ccc(CCN(CCc2ccccc2OCc2ccc(-c3ccc(C(F)(F)F)cc3)cc2Cl)[C@H]2CCCc3nc(C(=O)O)ccc32)cc1 [Example 1, (5S)—{[2-(4-Carboxyphenyl)ethyl][2-(2-{[3-chloro-4′-(trifluoromethyl)biphenyl-4-yl]methoxy}phenyl)-ethyl]amino}-5,6,7,8-tetrahydroquinoline-2-carboxylic Acid Monohydrate II]
free fractions (comparison) [4]: lowest free fractions

Compound: CC#CCC(C)[C@H](O)/C=C/[C@@H]1[C@H]2C/C(=C/CCCC(=O)O)C[C@H]2C[C@H]1O (stereo partly shown) [Ventavis ®]
PAP % changes vs prevalue ([2]; 10 μg/kg nominal dose, time 0 min): 0% | PAP % changes vs prevalue ([2]; 10 μg/kg nominal dose, time 10 min): −30.3% | PAP % changes vs prevalue ([2]; 10 μg/kg nominal dose, time 20 min): −20.7% | PAP % changes vs prevalue ([2]; 10 μg/kg nominal dose, time 30 min): −6.9% | PAP % changes vs prevalue ([2]; 10 μg/kg nominal dose, time 40 min): 1.7% | PAP % changes vs prevalue ([2]; 10 μg/kg nominal dose, time 50 min): 4.9%

Compound: CC#CCC(C)[C@H](O)/C=C/[C@@H]1[C@H]2C/C(=C/CCCC(=O)O)C[C@H]2C[C@H]1O (stereo partly shown) [Ventavis, reference compound]
maximal duration of action ([2]; 10 μg/kg nominal dose): about 40 min | duration of action on haemodynamics (PVR) [5]: about 60 min

— US20250281480A1, “PHARMACEUTICAL DRY POWDER INHALATION FORMULATION” (Bayer Aktiengesellschaft, priority 2021, published 2025)
